Assay results from patent publication US5354754A, “Pyrrolopyrimidines, their production and use” (Takeda Chemical Industries, Ltd., priority 1989, dated 1994).
In brackets after ≈: the same amount, converted by molar mass.

Key:
[1] = system: Human epidermoid carcinoma KB cells; assay: cell growth inhibiting effect on KB cells (MTT, 72 hours); type: cell-based; details: 37° C., 5% CO2, MTT, absorbance at 590 nm
Description: The cell growth inhibiting effect (IC50) on KB cells of the compounds obtained in the following Examples was measured by the following method. (Hereinafter, % means weight %.)
Human epidermoid carcinoma KB cells (1×10^4 /ml) prepared by a conventional method were inoculated in a volume of 0.1 ml for each hole of the 96-microwell plate, and cultured at 37° C. for 24 hours without agitation in an atmosphere of 5% CO2. A 10% solution of one compound obtained by Example in 10% MEM (minimal essential medium, Nissui Pharmaceutical Co. Ltd, Japan) was added thereto, and the cells were cultured again at 37° C. for 72 hours without agitation in an atmosphere of 5% CO2. The culture was removed by using a micropipet, and another 10% solution 0.1 ml of MTT [3-(4,5-dimethylthiazol-2-yl)-2,5-diphenyltetrazolium bromide] (Dojin Laboratories, Japan) in 10% MEM (1.0 mg/ml) was added thereto. The cells were cultured at 37° C. for 4 hours. A 10% SDS [sodium dodecylsulfate](Wako Pure Chimicals, Japan) solution (0.1 ml) was further added, and the cells were cultured at 37° C. for 24 hours. The absorbance at 590 nm was measured, and the concentration of a drug needed for decreasing the number of cells in non-treated control group to a degree of 50% was determined as IC50 value of the compound.

[2] = system: glycinamide ribonucleotide transformylase; details: in words, Journal of Medicinal Chemistry, 28, 914(1985); cited from earlier work
[3] = system: dihydrofolic acid reductase; details: in words, prior art; cited from earlier work

IC50 [1] [ng/mL] | SMILES | inhibition of glycinamide ribonucleotide transformylase [2] | inhibition of dihydrofolic acid reductase [3]
0.43 (≈ 0.963 nM) | Nc1nc(N)c2c(CCCc3ccc(C(=O)N[C@@H](CCC(=O)O)C(=O)O)s3)c[nH]c2n1 [Example 3, N-[5-(3-(2,4-diamino-7H-pyrrolo[2,3-d]pyrimidin-5-yl)propyl)-2-thenoyl]-L-glutamic acid] | – | –
– | Nc1nc2c(c(=O)[nH]1)C[C@@H](CCc1ccc(C(=O)N[C@@H](CCC(=O)O)C(=O)O)cc1)CN2 [DDATHF] | main mechanism of which consists in inhibition of glycinamide ribonucleotide transformylase | does not inhibit dihydrofolic acid reductase
– | CN(Cc1cnc2nc(N)nc(N)c2n1)c1ccc(C(=O)N[C@@H](CCC(=O)O)C(=O)O)cc1 [methotrexate] | – | inhibit the reduction from dihydrofolic acid to tetrahydrofolic acid by coupling strongly with the dominant enzyme in the second step
